Molecular target: T1, Nav1.7 (or SCN9A) channel (Homo sapiens, UniProt Q15858)
T1 construct: expressed in transfected cells
Experiment: Nav1.7 PatchXpress 7000 automated electrophysiology assay (HEK cells stably expressing hSCN9A)
Assay type: cell-based
Details: voltage-clamped at V1/2 of inactivation, read-out: Nav1.7 EIC50
Summary of the method: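 Automated whole-cell clamp (PatchXpress) of HEK cells stably expressing hSCN9A, at 22-24 °C, in extracellular buffer at pH 7.4. Cells were held at the measured V1/2 of inactivation, then stepped to 0 mV for 20 ms. Single-concentration % inhibition gave EIC50 = concentration × (100 − %inhibition)/%inhibition, excluding <20% or >80%.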

T1 sequence (Q15858 whole entry): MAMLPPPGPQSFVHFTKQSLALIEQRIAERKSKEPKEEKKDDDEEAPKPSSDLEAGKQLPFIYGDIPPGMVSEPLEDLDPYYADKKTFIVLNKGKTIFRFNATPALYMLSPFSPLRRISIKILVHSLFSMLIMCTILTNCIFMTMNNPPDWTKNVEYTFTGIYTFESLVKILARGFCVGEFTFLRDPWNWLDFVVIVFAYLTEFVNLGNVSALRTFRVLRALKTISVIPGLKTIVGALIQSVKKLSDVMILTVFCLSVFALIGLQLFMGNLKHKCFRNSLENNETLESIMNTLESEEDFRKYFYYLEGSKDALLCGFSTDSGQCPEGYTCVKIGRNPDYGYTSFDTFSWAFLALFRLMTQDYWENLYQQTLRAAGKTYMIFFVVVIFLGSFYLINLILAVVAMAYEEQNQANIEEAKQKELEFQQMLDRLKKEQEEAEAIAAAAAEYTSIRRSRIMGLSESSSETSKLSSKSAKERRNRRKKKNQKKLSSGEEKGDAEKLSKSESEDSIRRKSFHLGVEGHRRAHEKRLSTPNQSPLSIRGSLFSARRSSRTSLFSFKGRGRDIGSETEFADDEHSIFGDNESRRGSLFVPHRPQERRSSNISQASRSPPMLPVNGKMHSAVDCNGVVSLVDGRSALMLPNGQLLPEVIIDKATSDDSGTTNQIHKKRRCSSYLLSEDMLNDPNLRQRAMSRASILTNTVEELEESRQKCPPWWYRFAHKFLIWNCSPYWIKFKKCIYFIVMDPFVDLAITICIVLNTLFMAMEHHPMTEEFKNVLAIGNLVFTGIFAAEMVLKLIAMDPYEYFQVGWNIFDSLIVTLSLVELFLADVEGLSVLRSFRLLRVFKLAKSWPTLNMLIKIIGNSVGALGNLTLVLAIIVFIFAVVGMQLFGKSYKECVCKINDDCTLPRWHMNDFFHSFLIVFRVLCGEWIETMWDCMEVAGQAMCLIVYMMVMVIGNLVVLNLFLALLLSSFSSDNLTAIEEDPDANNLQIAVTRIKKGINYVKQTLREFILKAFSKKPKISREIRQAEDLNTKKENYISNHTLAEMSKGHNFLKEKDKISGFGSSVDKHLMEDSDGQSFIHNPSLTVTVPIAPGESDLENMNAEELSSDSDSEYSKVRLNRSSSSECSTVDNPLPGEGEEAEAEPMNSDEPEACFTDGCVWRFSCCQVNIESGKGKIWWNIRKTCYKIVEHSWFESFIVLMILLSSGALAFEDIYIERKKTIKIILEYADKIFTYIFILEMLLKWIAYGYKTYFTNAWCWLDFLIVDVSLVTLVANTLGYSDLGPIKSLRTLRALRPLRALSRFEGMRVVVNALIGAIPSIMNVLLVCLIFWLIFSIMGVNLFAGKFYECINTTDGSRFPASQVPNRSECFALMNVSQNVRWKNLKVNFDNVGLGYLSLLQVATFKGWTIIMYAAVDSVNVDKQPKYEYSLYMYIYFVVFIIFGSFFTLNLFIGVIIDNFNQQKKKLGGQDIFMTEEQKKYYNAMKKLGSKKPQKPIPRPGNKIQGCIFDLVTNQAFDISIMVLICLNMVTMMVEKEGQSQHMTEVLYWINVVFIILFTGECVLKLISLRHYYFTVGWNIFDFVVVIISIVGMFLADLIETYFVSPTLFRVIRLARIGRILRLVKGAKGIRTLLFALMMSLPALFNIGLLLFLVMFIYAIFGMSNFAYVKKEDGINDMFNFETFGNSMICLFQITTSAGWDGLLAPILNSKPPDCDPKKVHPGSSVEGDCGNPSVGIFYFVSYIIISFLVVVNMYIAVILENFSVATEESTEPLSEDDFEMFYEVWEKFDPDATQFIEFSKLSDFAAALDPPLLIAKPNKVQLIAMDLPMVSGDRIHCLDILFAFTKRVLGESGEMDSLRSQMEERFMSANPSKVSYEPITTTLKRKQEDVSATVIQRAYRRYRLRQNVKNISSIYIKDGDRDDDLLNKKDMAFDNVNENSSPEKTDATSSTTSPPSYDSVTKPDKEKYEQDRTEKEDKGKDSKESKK

IC50 [µM]	Structure (SMILES)
2.3	COc1cc(Cl)cc(Oc2cc(F)c(C(=O)NS(C)(=O)=O)cc2F)c1 [Example 144, 4-(3-chloro-5-methoxyphenoxy)-2,5-difluoro-N-(methylsulfonyl)benzamide]
2.5	CCOc1ccc(Oc2ccc(C(=O)NS(C)(=O)=O)cc2)cc1 [Example 253, 4-(4-ethoxyphenoxy)-N-(methylsulfonyl)benzamide]
> 1	COc1cc(OC(F)(F)F)ccc1Oc1cc(F)c(C(=O)NS(C)(=O)=O)cc1F [Example 72, 2,5-difluoro-4-[2-methoxy-4-(trifluoromethoxy)phenoxy]-N-(methylsulfonyl)benzamide]
0.86	COc1c(C(=O)NS(C)(=O)=O)ccc(Oc2ccc(Cl)c(C)c2)c1F [Example 230, 4-(4-chloro-3-methylphenoxy)-3-fluoro-2-methoxy-N-(methylsulfonyl)benzamide]
0.34	CS(=O)(=O)NC(=O)c1cc(F)c(Oc2ccc(OC(F)(F)F)c(Cl)c2)cc1F [Example 55, 4-(3-chloro-4-(trifluoromethoxy)phenoxy)-2,5-difluoro-N-(methylsulfonyl)benzamide]
0.22	CS(=O)(=O)NC(=O)c1ccc(Oc2ccc(Cl)cc2)c(Cl)c1 [Example 214, 3-chloro-4-(4-chlorophenoxy)-N-(methylsulfonyl)benzamide]
2	CCOc1ccccc1Oc1cc(F)c(C(=O)NS(C)(=O)=O)cc1Cl [Example 288, 5-chloro-4-(2-ethoxyphenoxy)-2-fluoro-N-(methylsulfonyl)benzamide]
7	CS(=O)(=O)NC(=O)c1ccc(Oc2cccc(C#N)c2)c(Cl)c1 [Example 264, 3-chloro-4-(3-cyanophenoxy)-N-(methylsulfonyl)benzamide]
5.6	COc1cccc(Oc2ccc(C(=O)NS(C)(=O)=O)cc2C#N)c1 [Example 277, 3-cyano-4-(3-methoxyphenoxy)-N-(methylsulfonyl)benzamide]
3.7	Cc1cc(Cl)ccc1Oc1cc(F)c(C(=O)NS(C)(=O)=O)cc1F [Example 102, 4-(4-chloro-2-methylphenoxy)-2,5-difluoro-N-(methylsulfonyl)benzamide]
0.42	Cc1ccc(Oc2cc(F)c(C(=O)NS(C)(=O)=O)cc2Cl)cc1 [Example 291, 5-chloro-2-fluoro-4-(4-methylphenoxy)-N-(methylsulfonyl)benzamide]
0.16	CCOc1ccc(Oc2cc(F)c(C(=O)NS(C)(=O)=O)cc2Cl)cc1 [Example 294, 5-chloro-4-(4-ethoxyphenoxy)-2-fluoro-N-(methylsulfonyl)benzamide]
1.3	CS(=O)(=O)NC(=O)c1cc(F)c(Oc2ccc(Cl)cc2)cc1F [Example 129, 4-(4-chlorophenoxy)-2,5-difluoro-N-(methylsulfonyl)benzamide]
28	COc1cccc(Oc2ccc(C(=O)NS(C)(=O)=O)cc2)c1 [Example 161, 4-(3-methoxyphenoxy)-N-(methylsulfonyl)benzamide]
0.63	Cc1cc(C(=O)NS(C)(=O)=O)ccc1Oc1ccc(Cl)cc1 [Example 240, 4-(4-chlorophenoxy)-3-methyl-N-(methylsulfonyl)benzamide]
1.4	COc1cccc(Oc2ccc(C(=O)NS(C)(=O)=O)cc2Cl)c1 [Example 255, 3-chloro-4-(3-methoxyphenoxy)-N-(methylsulfonyl)benzamide]
11	CS(=O)(=O)NC(=O)c1cc(F)c(Oc2cc(F)cc(F)c2)cc1F [Example 128, 4-(3,5-difluorophenoxy)-2,5-difluoro-N-(methylsulfonyl)benzamide]
0.81	O=C(NS(=O)(=O)C1CC1)c1ccc(Oc2ccc(Cl)c(C(F)(F)F)c2)cc1 [Example 1, 4-[4-Chloro-3-(trifluoromethyl)phenoxy]-N-(cyclopropylsulfonyl)benzamide]

Structure (SMILES)	IC50 [µM]
CS(=O)(=O)NC(=O)c1cc(F)c(Oc2ccc(C#N)c(Cl)c2)cc1F [Example 95, 4-(3-chloro-4-cyanophenoxy)-2,5-difluoro-N-(methylsulfonyl)benzamide]	> 3
